Results from ChEMBL document CHEMBL2074352, “N-glycosylation controls functional activity of Oatp1, an organic anion transporter” (Am J Physiol Gastrointest Liver Physiol, 2003).

Target: T1, Solute carrier organic anion transporter family member 1A1 (Rattus norvegicus, UniProt P46720)
T1 sequence (P46720 whole entry): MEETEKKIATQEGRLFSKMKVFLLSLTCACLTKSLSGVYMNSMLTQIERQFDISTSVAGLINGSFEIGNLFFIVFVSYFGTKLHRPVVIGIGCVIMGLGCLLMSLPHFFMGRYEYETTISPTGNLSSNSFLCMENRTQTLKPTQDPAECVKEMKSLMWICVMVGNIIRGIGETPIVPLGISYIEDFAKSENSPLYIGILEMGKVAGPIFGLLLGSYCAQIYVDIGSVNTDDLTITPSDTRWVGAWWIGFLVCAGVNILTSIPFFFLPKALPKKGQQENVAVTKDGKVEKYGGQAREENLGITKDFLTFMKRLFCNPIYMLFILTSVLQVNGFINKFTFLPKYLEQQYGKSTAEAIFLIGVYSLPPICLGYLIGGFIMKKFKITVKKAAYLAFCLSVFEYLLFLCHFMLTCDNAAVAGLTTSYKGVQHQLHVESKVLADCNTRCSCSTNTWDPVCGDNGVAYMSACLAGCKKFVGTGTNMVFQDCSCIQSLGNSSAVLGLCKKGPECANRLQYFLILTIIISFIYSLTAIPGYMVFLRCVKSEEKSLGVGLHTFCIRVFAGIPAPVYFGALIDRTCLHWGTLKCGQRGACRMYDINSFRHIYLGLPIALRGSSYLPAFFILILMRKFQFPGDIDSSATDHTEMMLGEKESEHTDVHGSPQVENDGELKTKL
Test: TP_TRANSPORTER: uptake in Oatp1-expressing Saccharomyces cerevisiae secretory vesicle
Assay type: functional, subcellular

Activity	SMILES
is not a substrate [-]	C[C@]12CC[C@@H]3c4ccc(OS(=O)(=O)O)cc4CC[C@H]3[C@@H]1CCC2=O [ESTRONE SULFURIC ACID]
is not a substrate [-]	CCCCC/C=C\C\C=C/C=C/C=C/[C@@H](SC[C@@H](NC(=O)CC[C@H](N)C(=O)O)C(=O)NCC(=O)O)[C@@H](O)CCCC(=O)O [LEUKOTRIEN C4]
